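Tested at 5 concentrations; 48 h exposure; 96-well plates; endpoints linearly interpolated, else capped at highest concentration. GI50 marks 50% less growth. TGI is the concentration that stops growth completely.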
What was measured:
Test in all cases: growth of human tumour cells (NCI), 48 h
SNB-75 CNS = tested on: SNB-75 CNS
UACC-257 melanoma = tested on: UACC-257 melanoma
OVCAR-3 ovarian = tested on: OVCAR-3 ovarian
SN12C renal = tested on: SN12C renal
SK-OV-3 ovarian = tested on: SK-OV-3 ovarian
MCF7 breast = tested on: MCF7 breast
HS 578T breast = tested on: HS 578T breast
A498 renal = tested on: A498 renal
NCI-H23 lung = tested on: NCI-H23 lung
TK-10 renal = tested on: TK-10 renal
SF-539 CNS = tested on: SF-539 CNS
CAKI-1 renal = tested on: CAKI-1 renal
OVCAR-5 ovarian = tested on: OVCAR-5 ovarian
OVCAR-8 ovarian = tested on: OVCAR-8 ovarian
A549 NSCLC = tested on: A549 NSCLC
BT-549 breast = tested on: BT-549 breast
COLO 205 colon = tested on: COLO 205 colon
SF-268 CNS = tested on: SF-268 CNS
UO-31 renal = tested on: UO-31 renal
DU-145 prostate = tested on: DU-145 prostate
U251 CNS = tested on: U251 CNS
HCT-116 colon = tested on: HCT-116 colon
HL-60(TB) leukemia = tested on: HL-60(TB) leukemia
SR leukemia = tested on: SR leukemia
T-47D breast = tested on: T-47D breast
SF-295 CNS = tested on: SF-295 CNS
SK-MEL-28 melanoma = tested on: SK-MEL-28 melanoma
MOLT-4 leukemia = tested on: MOLT-4 leukemia
PC-3 prostate = tested on: PC-3 prostate
HCT-15 colon = tested on: HCT-15 colon
MDA-MB-231 breast = tested on: MDA-MB-231 breast
ACHN renal = tested on: ACHN renal
MALME-3M melanoma = tested on: MALME-3M melanoma
786-0 renal = tested on: 786-0 renal
EKVX NSCLC = tested on: EKVX NSCLC
HCC-2998 colon = tested on: HCC-2998 colon
RPMI-8226 leukemia = tested on: RPMI-8226 leukemia
HOP-92 NSCLC = tested on: HOP-92 NSCLC
SW-620 colon = tested on: SW-620 colon
HT29 colon = tested on: HT29 colon
NCI-H522 lung = tested on: NCI-H522 lung
UACC-62 melanoma = tested on: UACC-62 melanoma
M14 melanoma = tested on: M14 melanoma
NCI/ADR-RES ovarian = tested on: NCI/ADR-RES ovarian
HOP-62 NSCLC = tested on: HOP-62 NSCLC
CCRF-CEM leukemia = tested on: CCRF-CEM leukemia
NCI-H460 lung = tested on: NCI-H460 lung

CCCCCCCCCCCCCCCC[N+]1(C)CCOCC1
GI50 (SNB-75 CNS): 868 nM | TGI (SNB-75 CNS): 2460 nM | GI50 (UACC-257 melanoma): 4 µM | TGI (UACC-257 melanoma): 17.2 µM | GI50 (OVCAR-3 ovarian): 1560 nM | TGI (OVCAR-3 ovarian): 3.61 µM | GI50 (SN12C renal): 2600 nM | TGI (SN12C renal): 8.92 µM | GI50 (SK-OV-3 ovarian): 2200 nM | TGI (SK-OV-3 ovarian): 7.36 µM | GI50 (MCF7 breast): 2720 nM | TGI (MCF7 breast): 13.2 µM | GI50 (HS 578T breast): 2230 nM | TGI (HS 578T breast): 8.44 µM | GI50 (A498 renal): 3.38 µM | TGI (A498 renal): 21.5 µM | GI50 (NCI-H23 lung): 2200 nM | TGI (NCI-H23 lung): 12.2 µM | GI50 (TK-10 renal): 1860 nM | TGI (TK-10 renal): 4.17 µM | GI50 (SF-539 CNS): 1870 nM | TGI (SF-539 CNS): 4.07 µM | GI50 (CAKI-1 renal): 5.32 µM | TGI (CAKI-1 renal): 22.5 µM | GI50 (OVCAR-5 ovarian): 1140 nM | TGI (OVCAR-5 ovarian): 2890 nM | GI50 (OVCAR-8 ovarian): 2530 nM | TGI (OVCAR-8 ovarian): 8.84 µM | GI50 (A549 NSCLC): 2790 nM | TGI (A549 NSCLC): 12.2 µM | GI50 (BT-549 breast): 2200 nM | TGI (BT-549 breast): 4.7 µM | GI50 (COLO 205 colon): 1150 nM | TGI (COLO 205 colon): 2420 nM | GI50 (SF-268 CNS): 1630 nM | TGI (SF-268 CNS): 4.22 µM | GI50 (UO-31 renal): 13.4 µM | TGI (UO-31 renal): 31.6 µM | GI50 (DU-145 prostate): 2410 nM | TGI (DU-145 prostate): 6.79 µM | GI50 (U251 CNS): 1060 nM | TGI (U251 CNS): 2340 nM | GI50 (HCT-116 colon): 1590 nM | TGI (HCT-116 colon): 3.87 µM | GI50 (HL-60(TB) leukemia): 1310 nM | TGI (HL-60(TB) leukemia): 3.35 µM | GI50 (SR leukemia): 1280 nM | TGI (SR leukemia): 4.66 µM | GI50 (T-47D breast): 4.68 µM | TGI (T-47D breast): 25.2 µM | GI50 (SF-295 CNS): 1800 nM | TGI (SF-295 CNS): 6.29 µM | GI50 (SK-MEL-28 melanoma): 2420 nM | TGI (SK-MEL-28 melanoma): 7.69 µM | GI50 (MOLT-4 leukemia): 1600 nM | TGI (MOLT-4 leukemia): 3.69 µM | GI50 (PC-3 prostate): 655 nM | TGI (PC-3 prostate): 2430 nM | GI50 (HCT-15 colon): 2550 nM | TGI (HCT-15 colon): 7.99 µM | GI50 (MDA-MB-231 breast): 1390 nM | TGI (MDA-MB-231 breast): 3.94 µM | GI50 (ACHN renal): 2930 nM | TGI (ACHN renal): 13.9 µM | GI50 (MALME-3M melanoma): 2380 nM | TGI (MALME-3M melanoma): 6.71 µM | GI50 (786-0 renal): 1520 nM | TGI (786-0 renal): 2990 nM | GI50 (EKVX NSCLC): 3.42 µM | TGI (EKVX NSCLC): 20.1 µM | GI50 (HCC-2998 colon): 1210 nM | TGI (HCC-2998 colon): 2750 nM | GI50 (RPMI-8226 leukemia): 1300 nM | TGI (RPMI-8226 leukemia): 4.06 µM | GI50 (HOP-92 NSCLC): 499 nM | TGI (HOP-92 NSCLC): 2640 nM | GI50 (SW-620 colon): 2050 nM | TGI (SW-620 colon): 10.4 µM | GI50 (HT29 colon): 766 nM | TGI (HT29 colon): 3000 nM | GI50 (NCI-H522 lung): 2090 nM | TGI (NCI-H522 lung): 5.07 µM | GI50 (UACC-62 melanoma): 1610 nM | TGI (UACC-62 melanoma): 3.83 µM | GI50 (M14 melanoma): 1320 nM | TGI (M14 melanoma): 2980 nM | GI50 (NCI/ADR-RES ovarian): 18.1 µM | TGI (NCI/ADR-RES ovarian): 44.9 µM | GI50 (HOP-62 NSCLC): 1340 nM | TGI (HOP-62 NSCLC): 3.15 µM | GI50 (CCRF-CEM leukemia): 1090 nM | TGI (CCRF-CEM leukemia): 3.02 µM | GI50 (NCI-H460 lung): 1960 nM | TGI (NCI-H460 lung): 4.73 µM
